Measurements: patent publication US20220281831A1, “FUSED-GLUTARIMIDE CRBN LIGANDS AND USES THEREOF” (Kymera Therapeutics, Inc., priority 2019, published 2022)

Target: His-tagged CRBN-DDB1 complex (Homo sapiens, UniProt Q96SW2)
Experiment: Time-Resolved Fluorescence Resonance Energy Transfer (TR-FRET / HTRF) CRBN binding assay, displacement of Cy5-labeled thalidomide
Conditions: His-CRBN-DDB1, Cy5-thalidomide 8 nM, 1 hour room temperature
Experimental: Time-Resolved Fluorescence Resonance Energy Transfer (TR-FRET) Assay.
Equal volumes of His-tagged CRBN-DDB1 complex (56 nM) was mixed with Eu-cryptate labeled Anti-6HIS-monoclonal antibody (50× dilution from the commercial stock solution, Vender: Cisbio, Cat. #61HI2KLA) in a final buffer containing 20 mM HEPES pH 7.0, 150 mM NaCl, 0.005% Tween-20. […] The mixture were incubated at room temperature for 1 hour. FRET signals were measured on an EnVision plate reader (Perkin Elmer) by exciting at 340 nm and recording emission at both 615 nm as no FRET control and 665 nm as the FRET signals with a 60 microsecond delay. FRET efficiency was calculated as the ratio of fluorescent signals at […]. Quantitative loss of FRET efficiency as a function of compound concentrations was fitted by a four-parameter Logistic Function using GraphPad Prism 7.0 and the IC50 values were reported for each compound.
The compound numbers correspond to the compound numbers in Table 1.

Chain of His-tagged CRBN-DDB1 complex (Q96SW2 whole entry): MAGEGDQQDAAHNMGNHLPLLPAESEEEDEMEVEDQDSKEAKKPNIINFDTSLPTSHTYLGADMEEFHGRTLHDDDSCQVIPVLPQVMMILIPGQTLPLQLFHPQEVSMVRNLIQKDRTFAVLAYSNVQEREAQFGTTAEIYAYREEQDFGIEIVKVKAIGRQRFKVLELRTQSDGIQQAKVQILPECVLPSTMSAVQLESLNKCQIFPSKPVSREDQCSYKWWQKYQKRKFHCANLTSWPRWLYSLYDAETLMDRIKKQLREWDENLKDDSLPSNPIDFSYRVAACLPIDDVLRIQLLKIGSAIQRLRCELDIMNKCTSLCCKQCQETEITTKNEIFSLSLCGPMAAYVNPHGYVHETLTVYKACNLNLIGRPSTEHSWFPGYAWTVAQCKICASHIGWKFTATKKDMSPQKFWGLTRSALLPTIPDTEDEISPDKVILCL
Chain of His-tagged CRBN-DDB1 complex (Q16531 whole entry partner): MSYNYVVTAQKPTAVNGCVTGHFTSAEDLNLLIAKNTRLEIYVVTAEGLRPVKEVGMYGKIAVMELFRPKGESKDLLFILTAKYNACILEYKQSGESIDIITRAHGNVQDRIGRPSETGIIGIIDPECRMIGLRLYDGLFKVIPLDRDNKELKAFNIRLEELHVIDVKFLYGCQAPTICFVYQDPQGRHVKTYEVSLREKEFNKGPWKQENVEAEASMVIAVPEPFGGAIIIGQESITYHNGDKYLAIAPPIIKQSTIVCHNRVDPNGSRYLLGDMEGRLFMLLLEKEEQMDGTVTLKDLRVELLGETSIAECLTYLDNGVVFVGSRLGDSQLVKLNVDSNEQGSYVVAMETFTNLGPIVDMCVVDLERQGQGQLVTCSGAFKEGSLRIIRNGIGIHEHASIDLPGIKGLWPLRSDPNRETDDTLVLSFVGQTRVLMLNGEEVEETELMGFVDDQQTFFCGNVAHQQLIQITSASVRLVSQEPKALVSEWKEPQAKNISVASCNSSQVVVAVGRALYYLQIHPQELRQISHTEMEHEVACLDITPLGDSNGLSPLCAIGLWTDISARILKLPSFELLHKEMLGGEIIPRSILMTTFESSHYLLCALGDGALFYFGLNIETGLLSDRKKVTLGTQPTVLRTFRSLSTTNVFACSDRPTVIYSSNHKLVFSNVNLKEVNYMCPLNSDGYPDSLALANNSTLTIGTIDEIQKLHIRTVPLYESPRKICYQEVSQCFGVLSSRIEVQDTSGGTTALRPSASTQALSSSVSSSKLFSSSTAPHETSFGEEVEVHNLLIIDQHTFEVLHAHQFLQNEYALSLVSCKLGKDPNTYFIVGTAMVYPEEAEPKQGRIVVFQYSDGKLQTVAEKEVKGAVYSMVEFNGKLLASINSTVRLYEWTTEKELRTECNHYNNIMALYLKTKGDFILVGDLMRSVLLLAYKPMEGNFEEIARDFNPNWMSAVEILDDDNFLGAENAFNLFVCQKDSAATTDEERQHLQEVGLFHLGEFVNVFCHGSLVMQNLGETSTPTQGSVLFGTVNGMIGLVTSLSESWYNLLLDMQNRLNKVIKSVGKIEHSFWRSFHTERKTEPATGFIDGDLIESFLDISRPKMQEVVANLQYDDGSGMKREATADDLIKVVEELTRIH

| SMILES | IC50 |
| --- | --- |
| CN(C)c1ccc(CN2C[C@@H]3C(=O)NC(=O)[C@@H]3C2)cc1 [Compound I-294] | > 100 µM |
| O=C1NC(=O)[C@@H]2CN(Cc3ccc([N+](=O)[O-])s3)C[C@H]12 [Compound I-295] | 30 to 100 µM |
| O=C1NC(=O)[C@@H]2CN(C3CCN(Cc4ccccc4)CC3)C[C@H]12 [Compound I-296] | > 100 µM |
| O=C1NC(=O)[C@@H]2CN(Cc3c[nH]cn3)C[C@H]12 [Compound I-297] | > 100 µM |
| O=C1NC(=O)[C@@H]2CN(CCc3ccccc3)C[C@H]12 [Compound I-298] | > 100 µM |
| Cc1ccc(CN2C[C@@H]3C(=O)NC(=O)[C@@H]3C2)cc1 [Compound I-299] | > 100 µM |
| O=C1NC(=O)[C@@H]2CN(Cc3ccc[nH]3)C[C@H]12 [Compound I-300] | > 100 µM |
| O=C1NC(=O)[C@@H]2CN(C(=O)c3ccnc(Cl)c3)C[C@H]12 [Compound I-301] | > 100 µM |
| O=C1NC(=O)[C@@H]2CN(C(=O)c3n[nH]c4ccccc34)C[C@H]12 [Compound I-302] | > 100 µM |
| O=C1NC(=O)[C@@H]2CN(C(=O)COCc3ccccc3)C[C@H]12 [Compound I-303] | > 100 µM |
| O=C1NC(=O)[C@@H]2CN(C(=O)c3cccnn3)C[C@H]12 [Compound I-304] | > 100 µM |
| Cc1cccc(CC(=O)N2C[C@@H]3C(=O)NC(=O)[C@@H]3C2)c1 [Compound I-305] | > 100 µM |
| O=C1NC(=O)[C@@H]2CN(C(=O)C3CC3)C[C@H]12 [Compound I-306] | > 100 µM |
| O=C1NC(=O)[C@@H]2CN(C(=O)c3cnccn3)C[C@H]12 [Compound I-307] | > 100 µM |
| O=C1NC(=O)[C@@H]2CN(C(=O)c3ccco3)C[C@H]12 [Compound I-308] | > 100 µM |
| Cc1ncoc1C(=O)N1C[C@@H]2C(=O)NC(=O)[C@@H]2C1 [Compound I-309] | > 100 µM |
| Cc1cc(C(=O)N2C[C@@H]3C(=O)NC(=O)[C@@H]3C2)ccn1 [Compound I-310] | > 100 µM |
| O=C1NC(=O)[C@@H]2CN(Cc3ccc(Oc4ccccc4)cc3)C[C@H]12 [Compound I-311] | 30 to 100 µM |
| CCCCOc1ccc(CN2C[C@@H]3C(=O)NC(=O)[C@@H]3C2)cc1 [Compound I-312] | > 100 µM |
| O=C1NC(=O)[C@@H]2CN(Cc3ccc(F)c4ccccc34)C[C@H]12 [Compound I-313] | > 100 µM |
| Cc1ccc(CN2C[C@@H]3C(=O)NC(=O)[C@@H]3C2)o1 [Compound I-314] | > 100 µM |

| SMILES | IC50 |
| --- | --- |
| O=C1NC(=O)[C@@H]2CN(Cc3cccc4cccnc34)C[C@H]12 [Compound I-315] | > 100 µM |
| O=C1NC(=O)[C@@H]2CN(Cc3cc4ccccc4o3)C[C@H]12 [Compound I-316] | 30 to 100 µM |
| O=C1NC(=O)[C@@H]2CN(C(=O)c3ccc4ccccc4c3)C[C@H]12 [Compound I-317] | 30 to 100 µM |
| O=C1NC(=O)[C@@H]2CN(C(=O)c3cncs3)C[C@H]12 [Compound I-318] | > 100 µM |
| O=C1NC(=O)[C@@H]2CN(C(=O)c3ccc4ccoc4c3)C[C@H]12 [Compound I-320] | > 100 µM |
| O=C1NC(=O)[C@@H]2CN(C(=O)c3cccs3)C[C@H]12 [Compound I-321] | > 100 µM |
| O=C1NC(=O)[C@@H]2CN(C(=O)c3ccc(F)cc3)C[C@H]12 [Compound I-322] | > 100 µM |
| Cc1cccc(C(=O)N2C[C@@H]3C(=O)NC(=O)[C@@H]3C2)c1 [Compound I-323] | > 100 µM |
| COc1ccc(C(=O)N2C[C@@H]3C(=O)NC(=O)[C@@H]3C2)cn1 [Compound I-324] | > 100 µM |
| O=C1NC(=O)[C@@H]2CN(Cc3cccc4ccccc34)C[C@H]12 [Compound I-325] | > 100 µM |
| CC(=O)Nc1ccc2c(c1)C(=O)NC2=O [Compound I-326] | > 100 µM |
| O=C1NC(=O)[C@@H]2CNC[C@H]12 [Compound I-327] | > 100 µM |
| O=C1NC(=O)[C@@H]2CN(Cc3ccccc3)C[C@H]12 [Compound I-328] | > 100 µM |
| O=C1CC2(CCN(Cc3cccc4cccnc34)CC2)CC(=O)N1 [Compound I-329] | > 100 µM |
| O=C1CC2(CCN(Cc3ccc([N+](=O)[O-])s3)CC2)CC(=O)N1 [Compound I-330] | 30 to 100 µM |
| O=C1CC2(CCN(Cc3cccc4ccccc34)CC2)CC(=O)N1 [Compound I-331] | > 100 µM |
| CN(C)c1ccc(CN2CCC3(CC2)CC(=O)NC(=O)C3)cc1 [Compound I-332] | > 100 µM |
| O=C1CC2(CCN(Cc3cc4ccccc4o3)CC2)CC(=O)N1 [Compound I-333] | > 100 µM |
| O=C1CC2(CCN(C(=O)COCc3ccccc3)CC2)CC(=O)N1 [Compound I-334] | > 100 µM |
| CCCCOc1ccc(CN2CCC3(CC2)CC(=O)NC(=O)C3)cc1 [Compound I-335] | > 100 µM |
| O=C1CC2(CCN(Cc3ccc(F)c4ccccc34)CC2)CC(=O)N1 [Compound I-336] | > 100 µM |

| SMILES | IC50 |
| --- | --- |
| O=C1CC2(CCN(Cc3ccc[nH]3)CC2)CC(=O)N1 [Compound I-337] | > 100 µM |
| Cc1ccc(CN2CCC3(CC2)CC(=O)NC(=O)C3)cc1 [Compound I-338] | > 100 µM |
| O=C1CC2(CCN(Cc3c[nH]cn3)CC2)CC(=O)N1 [Compound I-339] | > 100 µM |
| Cc1cc(C(=O)N2CCC3(CC2)CC(=O)NC(=O)C3)ccn1 [Compound I-340] | > 100 µM |
| O=C1CC2(CCN(C(=O)c3ccn[nH]3)CC2)CC(=O)N1 [Compound I-341] | > 100 µM |
| O=C1CC2(CCN(Cc3c[nH]c4ccccc34)CC2)CC(=O)N1 [Compound I-342] | > 100 µM |
| O=C1CC2(CCN(Cc3ccc(Cl)cc3)CC2)CC(=O)N1 [Compound I-343] | > 100 µM |
| O=C1CC2(CCN(Cc3ccc(Oc4ccccc4)cc3)CC2)CC(=O)N1 [Compound I-344] | > 100 µM |
| COc1ccc(CN2CCC3(CC2)CC(=O)NC(=O)C3)cn1 [Compound I-345] | > 100 µM |
| O=C1CC2(CCN(Cc3ccc(-c4ccccc4)cc3)CC2)CC(=O)N1 [Compound I-346] | > 100 µM |
| O=C1CC2(CCN(Cc3cccc(O)c3)CC2)CC(=O)N1 [Compound I-347] | > 100 µM |
| O=C1CC2(CCN(C(=O)c3cccs3)CC2)CC(=O)N1 [Compound I-348] | > 100 µM |
| Cc1cccc(CN2CCC3(CC2)CC(=O)NC(=O)C3)n1 [Compound I-349] | > 100 µM |
| O=C1CC2(CCN(C(=O)c3cccnn3)CC2)CC(=O)N1 [Compound I-350] | > 100 µM |
| O=C1CC2(CCN(C3CCCC3)CC2)CC(=O)N1 [Compound I-351] | > 100 µM |
| O=C1CC2(CCN(C(=O)Cc3ccccn3)CC2)CC(=O)N1 [Compound I-352] | > 100 µM |
| O=C1CC2(CCN(C(=O)c3cnco3)CC2)CC(=O)N1 [Compound I-353] | > 100 µM |
| O=C1CC2(CCN(C(=O)c3c[nH]cn3)CC2)CC(=O)N1 [Compound I-354] | > 100 µM |
| COc1ccc(C(=O)N2CCC3(CC2)CC(=O)NC(=O)C3)cn1 [Compound I-355] | > 100 µM |
| Cc1ccc(CN2CCC3(CC2)CC(=O)NC(=O)C3)o1 [Compound I-356] | > 100 µM |
| O=C1CC2(CCN(CCc3ccccc3)CC2)CC(=O)N1 [Compound I-357] | > 100 µM |
